# Assay results: patent US12303491B2, “Econazole nitrate medical patch and methods of use thereof” (Temple University-Of The Commonwealth System of Higher …, priority 2017, dated 2025)
# How the values were obtained:
# plasma protein = conditions: cited from earlier work
# Listeria monocytogenes = conditions: cited from earlier work
# Streptococcus faecalis = conditions: cited from earlier work
# [1] = system: Staphylococcus epidermidis; conditions: cited from earlier work
# Streptococcus bovis = conditions: cited from earlier work
# Bacillus subtilis = conditions: cited from earlier work
# Streptococcus pyogenes = conditions: cited from earlier work
# Staphylococcus aureus = conditions: cited from earlier work
# [2] = system: Corynebacterium diphtheria; conditions: cited from earlier work
# [3] = cited from earlier work
# Streptococcus faecium = conditions: cited from earlier work
# [4] = cited from earlier work; remark: listed apart in the source
# dermatomycoses = conditions: topical, dermatological studies, treatment period 2 to 6 weeks; cited from earlier work
# [5] = Drug release rate from acrylate patch; type: physicochemical
# Method: The percentage of TU was maintained at a concentration off 1%. Three concentrations of EN (1% w/w, 2.5% w/w and 5% w/w) and three concentrations of PG (5% w/w, 10% w/w and 20% w/w) were evaluated. The acrylate films were first fabricated with DURO-TAK® 87-4098. The total weight of the mixture was 5 g. Methanol was the only solvent used for dissolving the components in the acrylates films. The purpose of this was to screen out what concentration of EN and PG could be added into the polymer to form an acceptable patch. Then according to the EN and PG concentration determined from the DURO-TAK® 87-4098 films, fabricated patches using acrylate grades DURO-TAK® 87-2287, DURO-TAK® 87-4287 and DURO-TAK® 87-9301.
# Drug release from hydrophobic polymers is slow. The adhesives polymer used are hydrophobic polymers. To increase polymer chain mobility, the addition of a hydrophobic plasticizer was considered. Triacetin (TAC) and triethyl citrate (TEC) were the selected plasticizers. The adhesive polymer acrylate had been selected as the best polymer system. TAC or TEC was added into the acrylate polymer at three different levels. These were, 5%, 10% and 20% (based on the 5 g matrix weight).
# [6] = Nail penetration study in PVP solution; conditions: 1% and 5% PVP group compared to phosphoric buffer pH 7.4 and pH 5 groups
# [7] = type: in vitro ADME, human
# Method: The cadaver toenails were cut into 7 mm×7 mm (49 mm^2) pieces. The nail pieces were then hydrated at 100% RH overnight prior to start of experiment. The hydrated nail pieces were placed in the neoprene nail adapters (FIG. 2A) with orifice diameter of 5 mm. The receiver compartment was filled with pH 7.4 PBS (3 mL) containing 0.1% w/v gentamicin sulfate and the assembly was maintained at 32±1° C. throughout the duration of the experiment. Each sample was tested in triplicate. The patch in absence of thiourea was used as the control. The patches with diameter of 5 mm were cut. The release liner was removed and the drug matrix was placed in contact with the nail. The new patch was applied every 24 hrs for 14 days. Throughout the duration of the study, the Franz cells were dosed with a new patch daily. On the days 2, 4, 6, 8, 10, 12 and 14, 0.5 mL of the sample was withdrawn from the receiver compartment and replaced with equal volume of new receiving medium.
# [8] = Drug saturation solubility study; conditions: PVP 1% and 5% solution compared to phosphoric buffer pH 7.4 and pH 5 (P<0.05)
# [9] = Crystallization in patch films (visual observation); type: physicochemical
# Method: The drug (EN) and the PEs, thiourea (TU) and propylene glycol (PG), were dissolved or uniformly dispersed in the pressure sensitive adhesive(s) (PSAs), and spread onto a release liner. The drug (EN) and the nail PE (TU) were weighed out in a glass bottle and dissolved in solvent (methanol) and vortexed for 1 min. Then PG was weighed and added as solubilizer for EN and plasticizer for the patch. The solution was vortexed with the methanol as solvent until a single phase was obtained. Afterwards, the hydrophobic plasticizers triethyl citrate and hydrophilic polymer polyvinylpyrrolidone were weighed and mixed with the solvents prior to addition of PG. Finally the polymer was weighed out into the glass bottle and vortexed for 5 min to form a homogenous mixture. The formulae for the patch include but are not limited to those in Table 3. The bottles were then placed on the bottle roller and mixed overnight at medium speed to complete the mixing and remove the air bubbles generated during vortexing the polymer. […]
# The percentage of TU was maintained at a concentration off 1%. Three concentrations of EN (1% w/w, 2.5% w/w and 5% w/w) and three concentrations of PG (5% w/w, 10% w/w and 20% w/w) were evaluated. […] Then according to the EN and PG concentration determined from the DURO-TAK® 87-4098 films, fabricated patches using acrylate grades DURO-TAK® 87-2287, DURO-TAK® 87-4287 and DURO-TAK® 87-9301. […]
# [10] = In-vitro skin permeation, Franz diffusion cells; type: in vitro ADME, human
# Source text: The patch was studied for the transdermal permeation of EN using human cadaver skin and Franz diffusion cells (FIG. 2A). Three films each with an area of 4 cm^2 square patch were cut from patch film. The skin was cut into 1.5 cm by 1.5 cm pieces, and mount on the Franz diffusion cells with orifice diameter of 9 mm (FIG. 2B). The release liner was removed from the films and the matrix surface was placed in contact with the skin. The area of 0.64 cm^2 of the skin was in contact with the receiving medium. The receiver compartment was sampled at 1, 2, 4, 8, 12 and 24 hr by withdrawing 0.5 mL of the receiving medium and replacing with equal volume of pH 7.4 PBS. At the end of 24 hr, epidermis and dermis were heat separated and extracted for EN content.
# [11] = cited from earlier work; remark: listed apart in the source
SMILES,MIC (Listeria monocytogenes) [µg/mL],MIC (Streptococcus faecalis) [µg/mL],MIC [1] [µg/mL],MIC (Streptococcus bovis) [µg/mL],MIC (Bacillus subtilis) [µg/mL],MIC (Streptococcus pyogenes) [µg/mL],MIC (Staphylococcus aureus) [µg/mL],MIC [2] [µg/mL],MIC (Streptococcus faecium) [µg/mL],aqueous solubility [4],further results
Clc1ccc(COC(Cn2ccnc2)c2ccc(Cl)cc2Cl)cc1 (stereo not shown) [econazole],1.56,25,12.5,6.25,12.5,12.5,12.5,0.78,25,–,"plasma protein binding (plasma protein): greater than 98%; unchanged drug in urine ([3]; human, in vivo): No unchanged econazole is detected; dose recovered in urine and feces ([3]; vaginal cream, over 96 hours): less than 3%"
"Cc1cc(C2CCCCC2)n(O)c(=O)c1 [CPO, ciclopirox]",–,–,–,–,–,–,–,–,–,1.4 mg/mL,–
"Clc1ccc(COC(Cn2ccnc2)c2ccc(Cl)cc2Cl)cc1 (stereo not shown) [econazole nitrate, Econazole nitrate]",–,–,–,–,–,–,–,–,–,1.5 micrograms/ml,"patients cured (dermatomycoses): about 90%; drug release rate ([5]; acrylate patch in absence of PVP): 22.347 μg/cm^2/hour; drug release rate ([5]; acrylate patch with 1% PVP): 26.713 μg/cm^2/hour; drug release rate ([5]; acrylate patch with 5% PVP): 27.853 μg/cm^2/hour; amount penetrated into the nail plate [6]: significantly higher; drug amount in nail plate [7]: significantly increase; saturation solubility [8]: significantly higher; crystallization in patch ([9]; acrylate PSA patch, drug load 5% w/w, no PG added): slight crystallization; crystallization in patch ([9]; acrylate patch screening, EN concentration raised to 5% w/w): crystallization occurred; drug amount in the receiver compartment ([10]; human cadaver skin, after 24 hours): no drug amount appeared; drug amount in the dermis ([10]; patch with thiourea vs without, 24 hr): no significant difference; drug amount in the epidermis ([10]; patch with thiourea, 24 hr): 5.63 ug/cm^2; drug amount in the epidermis ([10]; patch without thiourea, 24 hr): 1.73 ug/cm^2; Water Solubility ([11]; at 19° C.): <0.1 g/100 mL at 19 °C; Log P [11]: 5.5; pKa [11]: 6.77; topically applied drug remaining on the skin surface ([3]; as a cream, patients): about 90%"
"Clc1ccc(COC(Cn2ccnc2)c2ccc(Cl)cc2Cl)c(Cl)c1 (stereo not shown) [miconazole base, miconazole]",1.56,25,6.25,3.12,3.12,6.25,6.25,0.39,25,–,–
